Assay results: ChEMBL document CHEMBL1126200, “Design and synthesis of novel FKBP inhibitors” (J Med Chem, 1992)
Non-standard residues stand in square brackets, D forms with d. Residues, ends and D or L forms follow the SMILES beside them. *: point of attachment. Pip = O=C(O)[C@@H]1CCCCN1; Cbz = O=C(OCc1ccccc1)*

experiment: The compound was tested for the inhibitory activity of FK506 binding protein; set-up: species or system Homo sapiens

Structure (SMILES) | IC50 [µM]
COc1cccc(C(=O)CN2CCCC[C@H]2C(=O)N[C@@H](CCc2ccccc2)C(=O)OC(C)C)c1 | > 100
C[C@@H](/C=C/c1ccc(C(=O)CN2CCCC2C(=O)NC(Cc2ccccc2)C(=O)OC(C)(C)C)s1)CO[Si](C)(C)C(C)(C)C (stereo not given in full) | 60
CC(C)(C)OC(=O)N[C@@H](CC1CCCCC1)C(=O)CN1CCCC1C(=O)NC(Cc1ccccc1)C(=O)OC(C)(C)C (stereo not given in full) | > 100
COc1cccc(C(=O)CN2CCCC[C@H]2C(=O)N[C@@H](CC2CCCCC2)C(=O)OC(C)(C)C)c1 | 91
COc1cccc(C(=O)CN2CCCC[C@H]2C(=O)N[C@H](C(=O)OC(C)(C)C)c2cccs2)c1 | 23
COc1cccc(C(=O)CN2CCCC[C@H]2C(=O)N[C@H](Cc2ccccc2)C(=O)OC(C)(C)C)c1 | 81
C=CCCC(NC(=O)[C@H](Cc1ccccc1)NC(=O)[C@@H]1CCCCN1CC(=O)c1cccc(OC)c1)C(=O)OC(C)(C)C (stereo not given in full) | 12
COc1cccc(C(=O)CN2CCCC[C@H]2C(=O)N[C@@H](CCC2CCCCC2)C(=O)OC(C)C)c1 | > 100
CCC(C)[C@H](NC(=O)[C@@H]1CCCCN1CC(=O)c1cccc(OC)c1)C(=O)OC(C)(C)C (stereo not given in full) | 8
COc1cccc(C(=O)CN2CCCC[C@H]2C(=O)N[C@@H](Cc2ccccc2)C(=O)N[C@H](/C=C/C2CCCC(=O)O2)C(C)C)c1 (stereo not given in full) | 42
COc1cccc(C(=O)CN2CCCC2C(=O)NC(Cc2ccccc2)C(=O)OC(C)(C)C)c1 (stereo not given) | 12
COc1cccc(C(=O)CN2CCCC[C@H]2C(=O)N[C@@H](Cc2ccccc2)C(=O)N[C@H](/C=C/COC(=O)C(F)(F)F)C(C)C)c1 | 1
C[C@@H](/C=C/c1ccc(C(=O)C(=O)N2CCCC2C(=O)NC(Cc2ccccc2)C(=O)OC(C)(C)C)s1)CO (stereo not given in full) | 120
COc1cccc(C(=O)CN2CCCC[C@H]2C(=O)N[C@@H](Cc2ccccc2)C(=O)N[C@H](/C=C/I)C(C)C)c1 | 2
CCC(C)C(NC(=O)[C@H](Cc1ccccc1)NC(=O)[C@@H]1CCCCN1CC(=O)c1cccc(OC)c1)C(=O)OC(C)(C)C (stereo not given in full) | 6
C[C@@H](/C=C/c1ccc(C(=O)C(=O)N2CCCC[C@H]2C(=O)NC(Cc2ccccc2)C(=O)OC(C)(C)C)s1)CO (stereo not given in full) | 9
COC1CCCC(C(=O)CN2CCCC2C(=O)NC(Cc2ccccc2)C(=O)OC(C)(C)C)C1 (stereo not given) | > 100
COc1cccc(C(=O)CN2CCCC[C@H]2C(=O)N[C@@H](Cc2ccc([N+](=O)[O-])cc2)C(=O)OC(C)(C)C)c1 | 27
CC(C)(C)OC(=O)C(CC1CCCCC1)NC(=O)[C@H](Cc1ccccc1)NC(=O)[C@@H]1CCCCN1CC(=O)c1ccc2ccccc2c1 (stereo not given in full) | 35
C=CCOC/C=C/[C@@H](NC(=O)[C@H](Cc1ccccc1)NC(=O)[C@@H]1CCCCN1CC(=O)c1cccc(OC)c1)C(C)C | 3
C[C@@H](/C=C/c1ccc(C(=O)C(=O)N2CCCC2C(=O)OC(C)(C)C)s1)CO[Si](C)(C)C(C)(C)C (stereo not given in full) | > 100
C[C@@H](/C=C/c1ccc(C(=O)C(=O)N2CCCC2C(=O)NC(Cc2ccccc2)C(=O)OC(C)(C)C)s1)CO[Si](C)(C)C(C)(C)C (stereo not given in full) | > 100
CC(=O)OC/C=C/[C@@H](NC(=O)[C@H](Cc1ccccc1)NC(=O)[C@@H]1CCCCN1CC(=O)c1ccc2ccccc2c1)C(C)C | 18
COc1cccc(C(=O)CN2CCCC[C@H]2C(=O)N[C@H](C(=O)OC(C)(C)C)c2ccsc2)c1 | 22
COc1cccc(C(=O)CN2CCCC[C@H]2C(=O)N[C@@H](Cc2ccccc2)C(=O)NC(CC2CCCCC2)C(=O)OC(C)(C)C)c1 (stereo not given in full) | 70
COc1cccc(C(=O)CN2CCCC[C@H]2C(=O)N[C@@H](Cc2ccccc2)C(=O)N[C@H](/C=C/C2CCC(=O)C2)C(C)C)c1 (stereo not given in full) | 11
COc1cccc(C(=O)CN2CCCC[C@H]2C(=O)N[C@@H](Cc2ccccc2)C(=O)OC(C)(C)C)c1 | 3
C[C@@H](/C=C/c1ccc(C(=O)C(=O)N2CCCC2C(=O)OC(C)(C)C)s1)CO (stereo not given in full) | > 100
COc1cccc(C(=O)CN2CCCC[C@H]2C(=O)N[C@H](C(=O)OC(C)(C)C)C(C)C)c1 | 83
COC(=O)[C@H](Cc1ccccc1)NC(=O)[C@@H](NC(=O)[C@H](Cc1ccccc1)NC(=O)[C@@H]1CCCCN1)C(C)C (H-[Pip]FVF-OMe) | > 100

Now from value to compound:

IC50 [µM] | Structure (SMILES)
65 | CC(C)[C@H](NC(=O)[C@H](Cc1ccccc1)NC(=O)[C@@H]1CCCCN1CC(=O)c1ccc2ccccc2c1)C(=O)N[C@@H](Cc1ccccc1)C(=O)N[C@H](C)c1ccccc1
13 | CC(C)[C@H](NC(=O)[C@H](Cc1ccccc1)NC(=O)[C@@H]1CCCCN1CC(=O)c1ccc2ccccc2c1)C(=O)N[C@@H](Cc1ccccc1)C(=O)OC(C)(C)C
0.3 | COC(=O)[C@H](Cc1ccccc1)NC(=O)[C@@H](NC(=O)[C@H](Cc1ccccc1)NC(=O)[C@@H]1CCCCN1CC(=O)c1ccc2ccccc2c1)C(C)C
59 | COc1cccc(C(=O)CN2CCCC[C@H]2C(=O)N[C@@H](Cc2ccccc2)C(=O)N[C@H](C(=O)N[C@@H](Cc2ccccc2)C(=O)N[C@@H](C)c2ccccc2)C(C)C)c1
40 | COc1cccc(C(=O)CN2CCCC[C@H]2C(=O)N[C@@H](Cc2ccccc2)C(=O)NC(Cc2ccccc2)C(=O)OC(C)(C)C)c1 (stereo not given in full)
85 | COc1cccc(C(=O)CN2CCCC[C@H]2C(=O)N[C@@H](Cc2ccccc2)C(=O)N[C@H](C(=O)N[C@@H](Cc2ccccc2)C(=O)N[C@H](C)c2ccccc2)C(C)C)c1
3 | COc1cccc(C(=O)CN2CCCC[C@H]2C(=O)N[C@@H](Cc2ccccc2)C(=O)NC(C(=O)OC(C)(C)C)C(C)C)c1 (stereo not given in full)
62 | COc1cccc(C(=O)CN2CCCC[C@H]2C(=O)N[C@@H](Cc2ccccc2)C(=O)N[C@H](/C=C/COC(=O)c2ccccc2)C(C)C)c1
23 | COc1cccc(C(=O)CN2CCCC[C@H]2C(=O)N[C@@H](Cc2ccccc2)C(=O)N[C@H](C(=O)N[C@@H](Cc2ccccc2)C(=O)O[C@H](C)c2ccccc2)C(C)C)c1
56 | COc1cccc(C(=O)CN2CCCC[C@H]2C(=O)N[C@@H](Cc2ccccc2)C(=O)N[C@H](C(=O)N[C@@H](Cc2ccccc2)C(=O)O[C@@H](C)c2ccccc2)C(C)C)c1
20 | COc1cccc(C(=O)CN2CCCC[C@H]2C(=O)N[C@@H](Cc2ccccc2)C(=O)N[C@H](C(=O)N[C@@H](Cc2ccccc2)C(=O)OC(C)(C)C)C(C)C)c1
75 | CC(C)[C@H](NC(=O)[C@H](Cc1ccccc1)NC(=O)[C@@H]1CCCCN1CC(=O)c1ccc2ccccc2c1)C(=O)N[C@@H](Cc1ccccc1)C(=O)N[C@H](C)c1cccc2ccccc12
2 | COc1cccc(C(=O)CN2CCCC[C@H]2C(=O)N[C@@H](Cc2ccccc2)C(=O)N[C@H](/C=C/COC(C)=O)C(C)C)c1
10 | COc1cccc(C(=O)CN2CCCC[C@H]2C(=O)N[C@@H](Cc2ccccc2)C(=O)N[C@H](/C=C/[C@@H](C)CC(C)=O)C(C)C)c1
35 | CC(C)[C@@H](/C=C/C(=O)N[C@@H](C)c1ccccc1)NC(=O)[C@H](Cc1ccccc1)NC(=O)[C@@H]1CCCCN1CC(=O)c1ccc2ccccc2c1
3 | COc1cccc(C(=O)CN2CCCC[C@H]2C(=O)N[C@@H](Cc2ccccc2)C(=O)NC(CC(C)C)C(=O)OC(C)(C)C)c1 (stereo not given in full)
40 | COc1cccc(C(=O)CN2CCCC[C@H]2C(=O)N[C@@H](Cc2ccccc2)C(=O)N[C@H](/C=C/C(=O)N[C@@H](C)c2ccccc2)C(C)C)c1
1 | CC(C)C(NC(=O)[C@H](Cc1ccccc1)NC(=O)[C@@H]1CCCCN1CC(=O)c1ccc2ccccc2c1)C(=O)OC(C)(C)C (stereo not given in full)
30 | COc1cccc(C(=O)CN2CCCC[C@H]2C(=O)N[C@@H](Cc2ccccc2)C(=O)N[C@H](C(=O)N[C@@H](Cc2ccccc2)C(=O)N[C@H](C)c2cccc3ccccc23)C(C)C)c1
> 100 | COc1cccc(C(=O)CN2CCCC[C@H]2C(=O)N[C@@H](Cc2ccccc2)C(=O)NC(CCCCNC(=O)OCc2ccccc2)C(=O)OCc2ccccc2)c1 (stereo not given in full)
14 | COc1cccc(C(=O)CN2CCCC[C@H]2C(=O)N[C@@H](Cc2ccccc2)C(=O)N[C@H](C(=O)Cc2ccccc2)C(C)C)c1
15 | CCOC(=O)/C=C/[C@@H](NC(=O)[C@H](Cc1ccccc1)NC(=O)[C@@H]1CCCCN1CC(=O)c1cccc(OC)c1)C(C)C
26 | COC(=O)[C@H](Cc1ccccc1)NC(=O)[C@@H](NC(=O)[C@H](Cc1ccccc1)NC(=O)[C@@H]1CCCCN1CC(=O)c1ccc(-c2ccccc2)cc1)C(C)C
1 | COC(=O)[C@H](Cc1ccccc1)NC(=O)[C@@H](NC(=O)[C@H](Cc1ccccc1)NC(=O)[C@@H]1CCCCN1CC(=O)c1cccc(OC)c1)C(C)C
> 100 | COC(=O)[C@H](Cc1ccccc1)NC(=O)[C@@H](NC(=O)[C@H](Cc1ccccc1)NC(=O)[C@@H]1CCCCN1C(=O)OCc1ccccc1)C(C)C (Cbz-[Pip]FVF-OMe)
